From patent US20250275540A1, “USE OF PROTOPORPHYRINOGEN OXIDASE” (BEIJING DABEINONG BIOTECHNOLOGY CO., LTD., priority 2022, published 2025)

Test system: transgenic maize plants
Test: Detection of the herbicide tolerance of the transgenic maize plants
Format: in vivo
Conditions: for The grade of pesticide damage/plant: 0 / The grade of pesticide damage/plant: 1 / The grade of pesticide damage/plant: 2 / The grade of pesticide damage/plant: 3: 7 DAT
From the text: The transformed Arabidopsis thaliana T1 plants were initially selected using glufosinate herbicide. The Arabidopsis thaliana T1 plants (PPOA-01) into which the PPOA-01 nucleotide sequence was introduced, the Arabidopsis thaliana T1 plants (PPOB-01) into which the PPOB-01 nucleotide sequence was introduced, the Arabidopsis thaliana T1 plants (PPOC-01) into which the PPOC-01 nucleotide sequence was introduced, the Arabidopsis thaliana T1 plants (PPOD-01) into which the PPOD-01 nucleotide sequence was introduced, the Arabidopsis thaliana T1 plants (PPOE-01) into which the PPOE-01 nucleotide sequence was introduced, the Arabidopsis thaliana T1 plants (PPOF-01) into which the PPOF-01 nucleotide sequence was introduced, the Arabidopsis thaliana T1 plants (PPO-AP-01) into which the PPO-AP-01 nucleotide sequence was introduced, and the Arabidopsis thaliana T1 plants (control vector) into which the control vector was introduced, the wild-type Arabidopsis thaliana plants (CK) (with 24 plants being included in each genotype) (18 days after sowing) were sprayed with saflufenacil at three concentrations (25 g ai/ha (one-fold field concentration, 1×), 100 g ai/ha (four-fold field concentration, 4×), and 0 g ai/ha (water, 0×)), oxyfluorfen at three concentrations (180 g ai/ha (one-fold field concentration, 1×), 720 g ai/ha (four-fold field concentration, 4×), and 0 g ai/ha (water, 0×)), and flumioxazin at three concentrations (60 g ai/ha (one-fold field concentration, 1×), 240 g ai/ha (four-fold field concentration, 4×), and 0 g ai/ha (water, 0×) to determine the tolerance of Arabidopsis thaliana to the herbicides. After 7 days of spraying (7 DAT), the damage level of each plant caused by the herbicide was evaluated according to the average of the damage levels (%) of plants (the average of the damage levels (%) of plants=the injured leaf area/the total leaf area×100%), i.e., the grade of pesticide damage: grade 0 means that the growth status of plants is essentially consistent with those sprayed with the blank solvent (water); grade 1 means that the average of the damage levels of plants is less than 10%; grade 2 means that the average of the damage levels of plants is greater than 10%; and grade 3 means that the average of the damage levels of plants is 100%. The plants having a growth status falling within grades 0 and 1 are classified as highly resistant plants; those having a growth status falling within grade 2 are classified as poorly resistant plants; and those having a growth status falling within grade 3 are classified as non-resistant plants.
The maize plants into which the PPOA-02 nucleotide sequence was introduced, the maize plants into which the PPOB-02 nucleotide sequence was introduced, the maize plants into which the PPOC-02 nucleotide sequence was introduced, the maize plants into which the PPOD-02 nucleotide sequence was introduced, the maize plants into which the PPOE-02 nucleotide sequence was introduced, the maize plants into which the PPOF-02 nucleotide sequence was introduced, the maize plants into which the PPO-AP-02 nucleotide sequence was introduced, the maize plants (control vector) into which the control vector was introduced, and the wild-type maize plants (CK) (with 16 plants being included in each genotype) (18 days after sowing) were taken and sprayed with saflufenacil at three concentrations (50 g ai/ha (two-fold field concentration, 2×), 100 g ai/ha (four-fold field concentration, 4×), and 0 g ai/ha (water, 0×)), oxyfluorfen at three concentrations (360 g ai/ha (two-fold field concentration, 2×), 720 g ai/ha (four-fold field concentration, 4×), and 0 g ai/ha (water, 0×), and flumioxazin at three concentrations (120 g ai/ha (two-fold field concentration, 2×), 240 g ai/ha (four-fold field concentration, 4×), and 0 g ai/ha (water, 0×) to determine the tolerance of maize plants to the herbicides. […]

[1] = genotype Control vector, 120 g ai/ha
[2] = genotype Control vector, 240 g ai/ha
[3] = genotype PPO-AP-02, 120 g ai/ha
[4] = genotype PPO-AP-02, 240 g ai/ha

C#CCN1C(=O)COc2cc(F)c(N3C(=O)C4=C(CCCC4)C3=O)cc21 [flumioxazin, 2-[7-fluoro-3,4-dihydro-3-oxo-4-(2-propynyl)-2H-1,4-benzoxazin-6-yl]-4,5,6,7-tetrahydro-1H-isoindole-1,3(2H)-dione]
The grade of pesticide damage/plant: 0 (genotype CK, 120 g ai/ha): 0 plant | The grade of pesticide damage/plant: 1 (genotype CK, 120 g ai/ha): 0 plant | The grade of pesticide damage/plant: 2 (genotype CK, 120 g ai/ha): 0 plant | The grade of pesticide damage/plant: 3 (genotype CK, 120 g ai/ha): 16 plant | The grade of pesticide damage/plant: 0 (genotype CK, 240 g ai/ha): 0 plant | The grade of pesticide damage/plant: 1 (genotype CK, 240 g ai/ha): 0 plant | The grade of pesticide damage/plant: 2 (genotype CK, 240 g ai/ha): 0 plant | The grade of pesticide damage/plant: 3 (genotype CK, 240 g ai/ha): 16 plant | The grade of pesticide damage/plant: 0 [1]: 0 plant | The grade of pesticide damage/plant: 1 [1]: 0 plant | The grade of pesticide damage/plant: 2 [1]: 0 plant | The grade of pesticide damage/plant: 3 [1]: 16 plant | The grade of pesticide damage/plant: 0 [2]: 0 plant | The grade of pesticide damage/plant: 1 [2]: 0 plant | The grade of pesticide damage/plant: 2 [2]: 0 plant | The grade of pesticide damage/plant: 3 [2]: 16 plant | The grade of pesticide damage/plant: 0 [3]: 0 plant | The grade of pesticide damage/plant: 1 [3]: 0 plant | The grade of pesticide damage/plant: 2 [3]: 3 plant | The grade of pesticide damage/plant: 3 [3]: 13 plant | The grade of pesticide damage/plant: 0 [4]: 0 plant | The grade of pesticide damage/plant: 1 [4]: 0 plant | The grade of pesticide damage/plant: 2 [4]: 0 plant | The grade of pesticide damage/plant: 3 [4]: 16 plant | tolerance to the herbicide (in words) (genotype PPO-AP-02, at different concentrations): basically no tolerance | The grade of pesticide damage/plant: 0 (genotype PPOA-02, 120 g ai/ha): 16 plant | The grade of pesticide damage/plant: 1 (genotype PPOA-02, 120 g ai/ha): 0 plant | The grade of pesticide damage/plant: 2 (genotype PPOA-02, 120 g ai/ha): 0 plant | The grade of pesticide damage/plant: 3 (genotype PPOA-02, 120 g ai/ha): 0 plant | The grade of pesticide damage/plant: 0 (genotype PPOA-02, 240 g ai/ha): 16 plant | The grade of pesticide damage/plant: 1 (genotype PPOA-02, 240 g ai/ha): 0 plant | The grade of pesticide damage/plant: 2 (genotype PPOA-02, 240 g ai/ha): 0 plant | The grade of pesticide damage/plant: 3 (genotype PPOA-02, 240 g ai/ha): 0 plant | The grade of pesticide damage/plant: 0 (genotype PPOB-02, 120 g ai/ha): 16 plant | The grade of pesticide damage/plant: 1 (genotype PPOB-02, 120 g ai/ha): 0 plant | The grade of pesticide damage/plant: 2 (genotype PPOB-02, 120 g ai/ha): 0 plant | The grade of pesticide damage/plant: 3 (genotype PPOB-02, 120 g ai/ha): 0 plant | The grade of pesticide damage/plant: 0 (genotype PPOB-02, 240 g ai/ha): 16 plant | The grade of pesticide damage/plant: 1 (genotype PPOB-02, 240 g ai/ha): 0 plant | The grade of pesticide damage/plant: 2 (genotype PPOB-02, 240 g ai/ha): 0 plant | The grade of pesticide damage/plant: 3 (genotype PPOB-02, 240 g ai/ha): 0 plant | The grade of pesticide damage/plant: 0 (genotype PPOC-02, 120 g ai/ha): 16 plant | The grade of pesticide damage/plant: 1 (genotype PPOC-02, 120 g ai/ha): 0 plant | The grade of pesticide damage/plant: 2 (genotype PPOC-02, 120 g ai/ha): 0 plant | The grade of pesticide damage/plant: 3 (genotype PPOC-02, 120 g ai/ha): 0 plant | The grade of pesticide damage/plant: 0 (genotype PPOC-02, 240 g ai/ha): 16 plant | The grade of pesticide damage/plant: 1 (genotype PPOC-02, 240 g ai/ha): 0 plant | The grade of pesticide damage/plant: 2 (genotype PPOC-02, 240 g ai/ha): 0 plant | The grade of pesticide damage/plant: 3 (genotype PPOC-02, 240 g ai/ha): 0 plant | The grade of pesticide damage/plant: 0 (genotype PPOD-02, 120 g ai/ha): 16 plant | The grade of pesticide damage/plant: 1 (genotype PPOD-02, 120 g ai/ha): 0 plant | The grade of pesticide damage/plant: 2 (genotype PPOD-02, 120 g ai/ha): 0 plant | The grade of pesticide damage/plant: 3 (genotype PPOD-02, 120 g ai/ha): 0 plant | The grade of pesticide damage/plant: 0 (genotype PPOD-02, 240 g ai/ha): 16 plant | The grade of pesticide damage/plant: 1 (genotype PPOD-02, 240 g ai/ha): 0 plant | The grade of pesticide damage/plant: 2 (genotype PPOD-02, 240 g ai/ha): 0 plant | The grade of pesticide damage/plant: 3 (genotype PPOD-02, 240 g ai/ha): 0 plant | The grade of pesticide damage/plant: 0 (genotype PPOE-02, 120 g ai/ha): 16 plant | The grade of pesticide damage/plant: 1 (genotype PPOE-02, 120 g ai/ha): 0 plant | The grade of pesticide damage/plant: 2 (genotype PPOE-02, 120 g ai/ha): 0 plant | The grade of pesticide damage/plant: 3 (genotype PPOE-02, 120 g ai/ha): 0 plant | The grade of pesticide damage/plant: 0 (genotype PPOE-02, 240 g ai/ha): 16 plant | The grade of pesticide damage/plant: 1 (genotype PPOE-02, 240 g ai/ha): 0 plant | The grade of pesticide damage/plant: 2 (genotype PPOE-02, 240 g ai/ha): 0 plant | The grade of pesticide damage/plant: 3 (genotype PPOE-02, 240 g ai/ha): 0 plant | The grade of pesticide damage/plant: 0 (genotype PPOF-02, 120 g ai/ha): 16 plant | The grade of pesticide damage/plant: 1 (genotype PPOF-02, 120 g ai/ha): 0 plant | The grade of pesticide damage/plant: 2 (genotype PPOF-02, 120 g ai/ha): 0 plant | The grade of pesticide damage/plant: 3 (genotype PPOF-02, 120 g ai/ha): 0 plant | The grade of pesticide damage/plant: 0 (genotype PPOF-02, 240 g ai/ha): 16 plant | The grade of pesticide damage/plant: 1 (genotype PPOF-02, 240 g ai/ha): 0 plant | The grade of pesticide damage/plant: 2 (genotype PPOF-02, 240 g ai/ha): 0 plant | The grade of pesticide damage/plant: 3 (genotype PPOF-02, 240 g ai/ha): 0 plant | tolerance to the herbicide (in words) (genotypes PPOA-02 to PPOF-02, at different concentrations): high-resistant tolerance
